According to PMC7617869, “Molecular glues that inhibit deubiquitylase activity and inflammatory signaling” (Nature Structural & Molecular Biology, 2025):
“And” between values parts separate entries of the source, which are not always exact repeats. Equal values may be shown once.

Assays:
[1] = system: AMSH* (a STAM2–AMSH fusion); test: AMSH* IQF DUB activity assay; type: biochemical; conditions: for Normalised V0: Fig. 1e, AMSH*
Protocol: (§1) IQF assays were performed in DUB reaction buffer containing 50 mM HEPES–NaOH pH 7.0, 100 mM NaCl, 0.1 mg ml^−1 BSA, 1 mM DTT and 0.03% v/v Brij-35. […] The final concentration of BRISC WT, all BRISC mutants, HsBRISCΔLoop, MmBRISC and DrBRISCΔNΔC was 1 nM. Other enzymes were tested at the following concentrations: 5 nM ARISC (FL), 10 nM CfBRISCΔNΔC, 250 nM AMSH* (ref. [43]), 500 nM USP2 and 1 μM trypsin (Sigma, 9002-07-7). For Michaelis–Menten experiments, 1 nM BRISC with 0–1 μM IQF K63-linked diubiquitin substrate was used. Michaelis–Menten analyses and Lineweaver–Burk plots were calculated using GraphPad Prism (version 9.0).
To assess enzymatic activity, BRISC complexes were diluted to concentrations between 1 nM and 50 nM. […] Then, 20-μl enzyme reactions were carried out in 384-well black flat-bottom low-flange plates (Corning, 35373). DUB activity was measured using IQF K63-linked diubiquitin (LifeSensors, DU6303) at 50 nM. Cleaved diubiquitin was monitored by measuring fluorescence intensity (excitation, 544 nm; emission, 575 nm; dichroic mirror, 560 nm). Fluorescence intensity was measured every minute for 30 min at 30 °C. Fluorescence intensity units were plotted against time to generate a linear reaction progress curve, where the initial velocity (V0) corresponds to the gradient of the curve (typically achieved within 15 min). IC50 values were calculated using the GraphPad Prism (version 9.0) built-in dose–response equation for inhibitor concentration versus response (variable slope).

BRISC = target: T1, BRISC (Homo sapiens, UniProt P46736+Q15018+Q9NXR7); test: Michaelis–Menten analysis of BRISC inhibition; type: biochemical
T1 construct: made in house; host or cells: Spodoptera frugiperda (Sf9) insect cells, MultiBac
Protocol: as §1

BRISC (FL) / BRISCΔNΔC = target: T2, BRISC (FL) / BRISCΔNΔC (Homo sapiens, UniProt P46736+Q15018+Q9NXR7); test: Mass photometry of BRISC dimer formation; conditions: for Dimer fraction: 50 nM BRISCΔNΔC
T2 construct: BRISCΔNΔC (MERIT40ΔN, Abraxas 2ΔC); made in house; host or cells: Spodoptera frugiperda Sf9 insect cells (MultiBac)
Protocol: Immediately before mass photometry measurement, the BRISC–inhibitor mix was diluted in 25 mM HEPES pH 7.5, 150 mM NaCl and 1 mM TCEP to 10 nM BRISC ([…]). Then, 12 μl of the diluted sample was used for the final mass photometry measurement, following autofocus stabilization. […] Next, 0.5 μl of inhibitor was mixed with 19.5 μl of 50 nM BRISCΔNΔC (2.5% v/v DMSO) and incubated at room temperature for 15 min. The BRISC–inhibitor mix was used directly for mass photometry measurement using buffer-free autofocus stabilization.
Microscope coverslips were prepared according to an established protocol. Experiments were performed using a OneMP mass photometer (Refeyn). Videos were recorded for 60 s using AcquireMP (Refeyn) and processed using DiscoverMP (Refeyn). Mass photometry image processing was previously described. Briefly, contrast-to-mass (C2M) calibration was performed using protein standards (66–669 kDa) diluted in buffer (25 mM HEPES pH 7.5, 150 mM NaCl and 1 mM TCEP). […] The mass distribution from each run was in the form of a histogram, where the count refers to each landing event and a Gaussian sum is fitted to the data. The relative amount of each species was calculated as the area of each Gaussian, where σ refers to the s.d. of the fitted Gaussian. The dimer fraction refers to the percentage of the total counts corresponding to the 564-kDa BRISCΔNΔC dimer complex. Curves and half-maximal effective concentration values were fitted and calculated using the GraphPad Prism (version 9.0) built-in dose–response equation for concentration of agonist versus response (variable slope).

mode of inhibition (BRISC; enzyme activity at different substrate concentrations): not competitive inhibitors
Dimer fraction (BRISC (FL) / BRISCΔNΔC; [Inhibitor (μM)] 5000): 0.32 and 0.27 and 0.22
Dimer fraction (BRISC (FL) / BRISCΔNΔC; [Inhibitor (μM)] 10000): 0.35 and 0.32 and 0.21
Structure (SMILES): O=C(NC1CCNCC1)c1nn(C(=O)c2c(Cl)cccc2Cl)cc1NC(=O)c1c(Cl)cccc1Cl [JMS-175-2]
inhibition of AMSH* [1]: did not inhibit
Normalised V0 ([1]; JMS-175-2 0.02 μM): 0.9388 and 1.234 and 1.0263
Normalised V0 ([1]; JMS-175-2 0.0399999 μM): 1.025 and 1.209 and 1.056
Normalised V0 ([1]; JMS-175-2 0.0599997 μM): 0.9933 and 1.1324 and 1.071
Normalised V0 ([1]; JMS-175-2 0.0799994 μM): 0.9897 and 1.213 and 1.205
Normalised V0 ([1]; JMS-175-2 0.119998 μM): 0.9691 and 1.214 and 1.014
Normalised V0 ([1]; JMS-175-2 0.199996 μM): 1.015 and 1.194 and 1.011
Normalised V0 ([1]; JMS-175-2 0.499975 μM): 0.9952 and 1.163 and 1.175
Normalised V0 ([1]; JMS-175-2 0.799936 μM): 1.012 and 1.167
Normalised V0 ([1]; JMS-175-2 1.25984 μM): 0.9861 and 1.185 and 1.256
Normalised V0 ([1]; JMS-175-2 1.9996 μM): 0.9727 and 1.04 and 1.202
Normalised V0 ([1]; JMS-175-2 3.159 μM): 1.015 and 1.159 and 1.047
Normalised V0 ([1]; JMS-175-2 5.19739 μM): 1.314 and 1.221 and 1.023
Normalised V0 ([1]; JMS-175-2 7.99364 μM): 1.059 and 1.183 and 1.085
Normalised V0 ([1]; JMS-175-2 12.7839 μM): 0.9322 and 1.462 and 1.072
Normalised V0 ([1]; JMS-175-2 19.96 μM): 0.9939 and 1.127 and 1.08
Normalised V0 ([1]; JMS-175-2 31.4999 μM): 1.033 and 1.252 and 1.115
Normalised V0 ([1]; JMS-175-2 50.147 μM): 0.9855 and 1.172 and 0.9587
Normalised V0 ([1]; JMS-175-2 79.7601 μM): 0.8988 and 1.1324 and 1.1315
Normalised V0 ([1]; JMS-175-2 125.99 μM): 0.8758 and 1.102 and 0.8516
Normalised V0 ([1]; JMS-175-2 199.922 μM): 0.8346 and 1.096 and 1.031
Initial velocity (FU/min) (BRISC; di-Ub-TAMRA 31.2 nM, inhibitor 48 nM): 124.7 FU/min and 137.4 FU/min and 146.6 FU/min
Initial velocity (FU/min) (BRISC; di-Ub-TAMRA 31.2 nM, inhibitor 195 nM): 137.4 FU/min and 132.5 FU/min and 144.8 FU/min
Initial velocity (FU/min) (BRISC; di-Ub-TAMRA 31.2 nM, inhibitor 781 nM): 114 FU/min and 123.2 FU/min and 122.2 FU/min
Initial velocity (FU/min) (BRISC; di-Ub-TAMRA 31.2 nM, inhibitor 3.12 μM): 80.48 FU/min and 77.42 FU/min and 88.2 FU/min
Initial velocity (FU/min) (BRISC; di-Ub-TAMRA 31.2 nM, inhibitor 12.5 μM): 62.2 FU/min and 65.87 FU/min and 55.25 FU/min
Initial velocity (FU/min) (BRISC; di-Ub-TAMRA 31.2 nM, inhibitor 50 μM): 31.39 FU/min and 49.47 FU/min and 41.04 FU/min
Initial velocity (FU/min) (BRISC; di-Ub-TAMRA 62.5 nM, inhibitor 48 nM): 222.1 FU/min and 242.3 FU/min and 243.8 FU/min
Initial velocity (FU/min) (BRISC; di-Ub-TAMRA 62.5 nM, inhibitor 195 nM): 205.5 FU/min and 232 FU/min and 265.7 FU/min
Initial velocity (FU/min) (BRISC; di-Ub-TAMRA 62.5 nM, inhibitor 781 nM): 172.4 FU/min and 226.1 FU/min and 228.4 FU/min
Initial velocity (FU/min) (BRISC; di-Ub-TAMRA 62.5 nM, inhibitor 3.12 μM): 160.2 FU/min and 117.4 FU/min and 160.5 FU/min
Initial velocity (FU/min) (BRISC; di-Ub-TAMRA 62.5 nM, inhibitor 12.5 μM): 80.26 FU/min and 123.7 FU/min and 100.7 FU/min
Initial velocity (FU/min) (BRISC; di-Ub-TAMRA 62.5 nM, inhibitor 50 μM): 43.48 FU/min and 66.23 FU/min and 64.63 FU/min
Initial velocity (FU/min) (BRISC; di-Ub-TAMRA 125 nM, inhibitor 48 nM): 476.9 FU/min and 540.8 FU/min and 503.9 FU/min
Initial velocity (FU/min) (BRISC; di-Ub-TAMRA 125 nM, inhibitor 195 nM): 474.4 FU/min and 538.4 FU/min and 481.2 FU/min
Initial velocity (FU/min) (BRISC; di-Ub-TAMRA 125 nM, inhibitor 781 nM): 402.8 FU/min and 468.4 FU/min and 474 FU/min
Initial velocity (FU/min) (BRISC; di-Ub-TAMRA 125 nM, inhibitor 3.12 μM): 310.9 FU/min and 277.7 FU/min and 256.8 FU/min
Initial velocity (FU/min) (BRISC; di-Ub-TAMRA 125 nM, inhibitor 12.5 μM): 183.3 FU/min and 175.6 FU/min and 208.5 FU/min
Initial velocity (FU/min) (BRISC; di-Ub-TAMRA 125 nM, inhibitor 50 μM): 67.12 FU/min and 88.75 FU/min and 84.05 FU/min
Initial velocity (FU/min) (BRISC; di-Ub-TAMRA 250 nM, inhibitor 48 nM): 886 FU/min and 905.7 FU/min and 906.9 FU/min
Initial velocity (FU/min) (BRISC; di-Ub-TAMRA 250 nM, inhibitor 195 nM): 866.4 FU/min and 900.9 FU/min and 960.9 FU/min
Initial velocity (FU/min) (BRISC; di-Ub-TAMRA 250 nM, inhibitor 781 nM): 740.9 FU/min and 834.7 FU/min and 869 FU/min
Initial velocity (FU/min) (BRISC; di-Ub-TAMRA 250 nM, inhibitor 3.12 μM): 573.6 FU/min and 456.6 FU/min and 483.6 FU/min
Initial velocity (FU/min) (BRISC; di-Ub-TAMRA 250 nM, inhibitor 12.5 μM): 283.5 FU/min and 316 FU/min and 354.2 FU/min
Initial velocity (FU/min) (BRISC; di-Ub-TAMRA 250 nM, inhibitor 50 μM): 119.1 FU/min and 114.6 FU/min and 160 FU/min
Initial velocity (FU/min) (BRISC; di-Ub-TAMRA 500 nM, inhibitor 195 nM): 1677 FU/min and 3345 FU/min and 1765 FU/min
Initial velocity (FU/min) (BRISC; di-Ub-TAMRA 500 nM, inhibitor 3.12 μM): 1143 FU/min and 881.4 FU/min and 1578 FU/min
Initial velocity (FU/min) (BRISC; di-Ub-TAMRA 500 nM, inhibitor 12.5 μM): 579 FU/min and 1146 FU/min and 683.3 FU/min
Initial velocity (FU/min) (BRISC; di-Ub-TAMRA 1000 nM, inhibitor 48 nM): 3019 FU/min and 3362 FU/min and 3486 FU/min
Initial velocity (FU/min) (BRISC; di-Ub-TAMRA 1000 nM, inhibitor 195 nM): 3093 FU/min and 3236 FU/min and 3210 FU/min
Initial velocity (FU/min) (BRISC; di-Ub-TAMRA 1000 nM, inhibitor 781 nM): 2371 FU/min and 2828 FU/min and 2787 FU/min
Initial velocity (FU/min) (BRISC; di-Ub-TAMRA 1000 nM, inhibitor 3.12 μM): 1731 FU/min and 1418 FU/min and 1905 FU/min
Initial velocity (FU/min) (BRISC; di-Ub-TAMRA 1000 nM, inhibitor 12.5 μM): 1009 FU/min and 1193 FU/min and 1032 FU/min
Initial velocity (FU/min) (BRISC; di-Ub-TAMRA 1000 nM, inhibitor 50 μM): 371.3 FU/min and 640.2 FU/min and 667.9 FU/min
dimer formation with increasing inhibitor concentration (mass photometry) (BRISC (FL) / BRISCΔNΔC): dose-dependent increase in dimer formation
